According to US20110313156A1 (BOEHRINGER INGELHEIM INTERNATIONAL GMBH, priority 2008, published 2011):

Target: T1, His6-PDK1 (aa 52-556) (Homo sapiens, UniProt O15530)
T1 construct: 15 μL His6-PDK1 (aa 52-556) 3.33 ng/well); host or cells: baculovirus-infected insect cells
T1 sequence (O15530 52-556): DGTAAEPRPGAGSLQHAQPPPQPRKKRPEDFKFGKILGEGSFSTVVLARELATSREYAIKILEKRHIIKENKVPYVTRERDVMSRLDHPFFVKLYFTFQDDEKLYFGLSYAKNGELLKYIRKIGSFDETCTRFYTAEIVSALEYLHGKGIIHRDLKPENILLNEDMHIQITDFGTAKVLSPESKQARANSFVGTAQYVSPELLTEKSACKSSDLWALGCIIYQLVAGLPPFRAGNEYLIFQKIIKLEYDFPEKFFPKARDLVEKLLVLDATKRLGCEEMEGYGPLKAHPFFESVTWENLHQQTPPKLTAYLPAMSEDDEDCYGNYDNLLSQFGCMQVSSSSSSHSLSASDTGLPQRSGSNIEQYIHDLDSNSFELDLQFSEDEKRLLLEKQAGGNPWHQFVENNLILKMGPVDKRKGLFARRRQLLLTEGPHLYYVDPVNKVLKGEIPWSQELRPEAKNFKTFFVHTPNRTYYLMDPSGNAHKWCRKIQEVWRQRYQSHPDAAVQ
Test: PDK1 kinase assay III (with Tween 20)
Type: biochemical
Conditions: compound at 10 μM; PDK1 kinase assay III (values without asterisk); read-out: % CTL (residual activity of the enzyme relative to DMSO control)
Summary of the method: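 Started with ATP, incubated 90 min at ambient temperature, then stopped with phosphoric acid. Asterisked values come from assay II (24 h or 5 min incubation).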

remaining activity at 10 µM [%] | SMILES
13.8 | COc1ccc(Nc2ncc3cc(/C=C/CNC(=O)c4cncn(Cc5ccc(F)c(F)c5)c4=O)ccc3n2)cc1
10.1 | NCCOc1cc(/C=C/CNC(=O)c2cncn(Cc3ccc(F)c(F)c3)c2=O)cc2cnc(Nc3ccc(N4CCOCC4)cc3)nc12
12.3 | O=C(NC/C=C/c1cc(OC2CCNCC2)c2nc(Nc3ccc(N4CCOCC4)cc3)ncc2c1)c1cncn(Cc2ccc(F)c(F)c2)c1=O
13.6 | COC(=O)c1ccc(Nc2ncc3cc(/C=C/CNC(=O)c4c(C)n(C)n(Cc5ccc(F)c(F)c5)c4=O)ccc3n2)cc1OC
42.7 | O=C1Nc2cc(/C=C/CNC(=O)c3cccc(Nc4ccc(F)c(F)c4)n3)ccc2/C1=C/c1cnc[nH]1 [I-20, 6-[(3,4-difluorophenyl)amino]-N-{(2E)-3-[(3Z)-3-(1H-imidazol-5-ylmethylidene)-2-oxo-2,3-dihydro-1H-indol-6-yl]prop-2-en-1-yl}pyridine-2-carboxamide]
13.2 | CN1CCC(Nc2ccc(Nc3ncc4cc(C#CCNC(=O)c5cc(Cl)nn(Cc6ccc(F)c(F)c6)c5=O)ccc4n3)cc2F)CC1 [III-38, 6-chloro-2(3,4-difluorobenzyl)-N-{3-[2-({3-fluoro-4-[(1-methylpiperidin-4-yl)-amino]phenyl}amino)quinazolin-6-yl]prop-2-yn-1-yl}-3-oxo-2,3-dihydropyridazine-4-carboxamide]
12.5 | Cc1c(C(=O)NC/C=C/c2cc(OCCCN)c3nc(Nc4ccc(N5CCOCC5)cc4)ncc3c2)c(=O)n(Cc2ccc(F)c(F)c2)n1C
36.1 | O=C1Nc2cc(/C=C/CNC(=O)C3CCCN(Cc4ccc(F)c(F)c4)C3=O)ccc2/C1=C/c1ccc[nH]1 (centres unmarked) [I-10, 1-(3,4-difluorobenzyl)-2-oxo-N-{(2E)-3-[(3Z)-2-oxo-3-(1H-pyrrol-2-ylmethylidene)-2,3-dihydro-1H-indol-6-yl]prop-2-en-1-yl}piperidine-3-carboxamide]
13.7 | CN(C)Cc1ccc(Nc2ncc3cc(C#CCNC(=O)c4nccn(Cc5ccc(F)c(F)c5)c4=O)ccc3n2)cc1 [III-17, 4-(3,4-difluorobenzyl)-N-{3-[2-({4-[(dimethylamino)methyl]phenyl}amino)quinazolin-6-yl]prop-2-yn-1-yl}-3-oxo-3,4-dihydropyrazine-2-carboxamide]
33.4 | CCOC(=O)c1ccc(Nc2ncc3cc(/C=C/CNC(=O)c4cncn(Cc5ccc(F)c(F)c5)c4=O)ccc3n2)cc1 [IV-53, ethyl-4-({6-[(1E)-3-({[1-(3,4-difluorobenzyl)-6-oxo-1,6-dihydropyrimidin-5-yl]carbonyl}amino)prop-1-en-1-yl]quinazolin-2-yl}amino)benzoate]
15.6 | O=C1Nc2cc(/C=C/CNC(=O)c3cncn(Cc4ccc(F)c(F)c4)c3=O)cc(F)c2/C1=C/c1cnc[nH]1 [I-46, 1-(3,4-difluorobenzyl)-N-{(2E)-3-[(3Z)-4-fluoro-3-(1H-imidazol-5-ylmethylidene)-2-oxo-2,3-dihydro-1H-indol-6-yl]prop-2-en-1-yl}-6-oxo-1,6-dihydropyrimidine-5-carboxamide]
17.2 | COCCN(C)C(=O)c1ccc(Nc2ncc3cc(C#CCNC(=O)c4c(C)n(C)n(Cc5ccc(F)c(F)c5)c4=O)ccc3n2)cc1
19.7 | CC1CCC(NC(=O)c2ccc(Nc3ncc4cc(C#CCNC(=O)c5cncn(Cc6ccc(F)c(F)c6)c5=O)ccc4n3)cc2)CC1 (centres unmarked)
11.6 | Cc1c(C(=O)NCC#Cc2ccc3nc(Nc4ccc(C(=O)NC5CCN(C)CC5)cc4)ncc3c2)c(=O)n(Cc2ccc(F)c(F)c2)n1C
13.9 | CN(C)Cc1ccc(Nc2ncc3cc(/C=C/CNC(=O)c4nc(Cl)cn(Cc5ccc(F)c(F)c5)c4=O)ccc3n2)cc1 [IV-61, 6-chloro-4-(3,4-difluorobenzyl)-N-{(2E)-3-[2-({4-[(dimethylamino)methyl]phenyl}amino)quinazolin-6-yl]prop-2-en-1-yl}-3-oxo-3,4-dihydropyrazine-2-carboxamide]
19.1 | Cc1c(C(=O)NCC#Cc2ccc3nc(Nc4ccccc4)ncc3c2)c(=O)n(Cc2ccc(F)c(F)c2)n1C [III-15, 2-(3,4-difluorobenzyl)-1,5-dimethyl-3-oxo-N-{3-[2-(phenylamino)quinazolin-6-yl]prop-2-yn-1-yl}-2,3-dihydro-1H-pyrazole-4-carboxamide]

remaining activity at 10 µM [%] | SMILES
19.1 | O=C(NC/C=C/c1ccc2nc(Nc3ccccc3)ncc2c1)c1cncn(Cc2ccc(F)c(F)c2)c1=O [IV-62]
14.7 | COc1ccc(Nc2ncc3cc(C#CCNC(=O)c4c(C)n(C)n(Cc5ccc(F)c(F)c5)c4=O)ccc3n2)cc1
14.3 | Cc1c(C(=O)NC/C=C/c2ccc3nc(Nc4ccc(CN(C)C)cc4)ncc3c2)c(=O)n(Cc2cc(F)c(F)c(F)c2)n1C [IV-20, N-{(2E)-3-[2-({4-[(dimethylamino)methyl]phenyl}amino)quinazolin-6-yl]prop-2-en-1-yl}-1,5-dimethyl-3-oxo-2-(3,4,5-trifluorobenzyl)-2,3-dihydro-1H-pyrazole-4-carboxamide]
24.4 | O=C(NCc1ccc(-c2cnc3[nH]ccc3c2)s1)c1cncn(Cc2ccc(F)c(F)c2)c1=O [IV-41, 1-(3,4-difluorobenzyl)-6-oxo-N-{[5-(1H-pyrrolo[2,3-b]pyridin-5-yl)thiophen-2-yl]methyl}-1,6-dihydropyrimidine-5-carboxamide]
13.7 | Cc1c(C(=O)NCC#Cc2ccc3nc(Nc4ccc(CN(C)C)cc4)ncc3c2)c(=O)n(Cc2ccc(F)c(F)c2)n1C [III-20, 2-(3,4-difluorobenzyl)-N-{3-[2-({4-[(dimethylamino)methyl]phenyl}amino)-quinazolin-6-yl]prop-2-yn-1-yl}-1,5-dimethyl-3-oxo-2,3-dihydro-1H-pyrazole-4-carboxamide]
15.3 | CN1CCC(N(C)c2ccc(Nc3ncc4cc(/C=C/CNC(=O)c5cncn(Cc6ccc(F)c(F)c6)c5=O)ccc4n3)cc2)CC1 [IV-45, 1-(3,4-difluorobenzyl)-N-{(2E)-3-[2-({4-[methyl(1-methylpiperidin-4-yl)amino]-phenyl}amino)quinazolin-6-yl]prop-2-en-1-yl}-6-oxo-1,6-dihydropyrimidine-5-carboxamide]
13.5 | CN1CCC(N(C)c2ccc(Nc3ncc4cc(/C=C/CNC(=O)c5nccn(Cc6ccc(F)c(F)c6)c5=O)ccc4n3)cc2)CC1 [IV-49, 4-(3,4-difluorobenzyl)-N-{(2E)-3-[2-({4-[methyl(1-methylpiperidin-4-yl)amino]-phenyl}amino)quinazolin-6-yl]prop-2-en-1-yl}-3-oxo-3,4-dihydropyrazine-2-carboxamide]
24.4 | Nc1ncc2cc(/C=C/CNC(=O)c3cncn(Cc4ccc(F)c(F)c4)c3=O)ccc2n1 [IV-48, N-[(2E)-3-(2-aminoquinazolin-6-yl)prop-2-en-1-yl]-1-(3,4-difluorobenzyl)-6-oxo-1,6-dihydropyrimidine-5-carboxamide]
23.5 | CCNc1ncc2cc(/C=C/CNC(=O)c3cncn(Cc4ccc(F)c(F)c4)c3=O)ccc2n1
12.4 | Cc1c(C#CCNC(=O)c2c(C)n(C)n(Cc3ccc(F)c(F)c3)c2=O)ccc2nc(Nc3ccccc3)ncc12
20.3 | CNc1ncc2cc(C#CCNC(=O)c3cncn(Cc4ccc(F)c(F)c4)c3=O)ccc2n1 [III-43, 1-(3,4-difluorobenzyl)-N-{3-[2-(methylamino)quinazolin-6-yl]prop-2-yn-1-yl}-6-oxo-1,6-dihydropyrimidine-5-carboxamide]
18.6 | Cc1nc[nH]c1/C=C1\C(=O)Nc2cc(/C=C/CNC(=O)c3c(C)n(C)n(Cc4ccccc4)c3=O)ccc21 [I-39, 2-benzyl-1,5-dimethyl-N-[(2E)-3-{(3Z)-3-[(4-methyl-1H-imidazol-5-yl)methylidene]-2-oxo-2,3-dihydro-1H-indol-6-yl}prop-2-en-1-yl]-3-oxo-2,3-dihydro-1H-pyrazole-4-carboxamide]
14.1 | CNC(=O)c1ccc(Nc2ncc3cc(/C=C/CNC(=O)c4cncn(Cc5ccc(F)c(F)c5)c4=O)ccc3n2)cc1Cl
15.4 | Cc1c(C(=O)NC/C=C/c2ccc3c(c2)NC(=O)/C3=C\c2ccc[nH]2)c(=O)n(Cc2ccc(F)c(F)c2)n1C [I-16, 2-(3,4-difluorobenzyl)-1,5-dimethyl-3-oxo-N-{(2E)-3-[(3Z)-2-oxo-3-(1H-pyrrol-2-ylmethylidene)-2,3-dihydro-1H-indol-6-yl]prop-2-en-1-yl}-2,3-dihydro-1H-pyrazole-4-carboxamide]
14.7 | Nc1ncc2cc(C#CCNC(=O)c3cncn(Cc4ccc(F)c(F)c4)c3=O)ccc2n1 [III-42, N-[3-(2-aminoquinazolin-6-yl)prop-2-yn-1-yl]-1-(3,4-difluorobenzyl)-6-oxo-1,6-dihydropyrimidine-5-carboxamide]
12.9 | CC(C)n1c(=O)c(C#CCNC(=O)c2cncn(Cc3ccc(F)c(F)c3)c2=O)cc2cnc(Nc3ccc(N4CCOCC4)cc3)nc21 [IV-59, 1-(3,4-difluorobenzyl)-N-{3-[2-{[4-(morpholin-4-yl)phenyl]amino}-7-oxo-8-(propane-2-yl)-7,8-dihydropyrido[2,3-c]pyrimidin-6-yl]prop-2-yn-1-yl}-6-oxo-1,6-dihydropyrimidine-5-carboxamide]
